In patent US10071099B2, “Medicament for suppressing malignant tumor metastasis” (NATIONAL CEREBRAL AND CARDIOVASCULAR CENTER, priority 2014, dated 2018):

How the values were obtained:
mouse melanoma B16-F10 [1] = test: Blood-borne lung metastasis model, mouse melanoma tail vein injection (CDDP); format: in vivo
Method: Lung Metastasis Suppressing Effect of Medicament in Blood-Borne Metastasis Model Established by Injection of Mouse Melanoma to Mouse Tail Vein (CDDP)
Eight-week-old male C57BL6 mice (purchased from Japan SLC, Inc.) were used. Mouse melanoma B16-F10 was purchased from ATCC, and cultured in Dulbecco's Modified Eagle Medium (DMEM) (Life Technologies Corp.) containing 10% fetal calf serum (FCS) under 5% CO2 at 37° C. The cells in a semiconfluent state were treated with EDTA-trypsin (a 0.01 to 0.125% solution), centrifuged, and then suspended in serum free DMEM so as to be 3×10^6 cells/mL. The melanoma cell suspension (100 μL/mouse, 3×10^5 cells) was injected to the tail vein of the mice.
As pretreatment, 2.5 mg/kg of cisplatin (CDDP) was injected to the tail vein of the mice 2 days before the injection of the melanoma cells into the tail vein.
As an angiotensin type 2 receptor agonist, Compound A was used.
To the angiotensin type 2 receptor agonist group, a 0.5% carboxymethylcellulose aqueous solution prepared so as to contain 30 mg/kg of Compound A was orally given from 4 days before the start of the CDDP administration to the end of the experiment (14 days after the injection of melanoma cells) in a continuous manner.
To the control group, CDDP was not injected, and only a 0.5% carboxymethylcellulose aqueous solution not containing the agent was orally given for the experiment.
(§1) In addition, for the purpose of comparison, an experiment in which CDDP was not injected and Compound A was orally administered and an experiment in which CDDP was injected and the 0.5% carboxymethylcellulose aqueous solution not containing the agent (Compound A) was orally given were performed.
The number of animals in each group was n=5.
The lung metastasis of the tumor cells 14 days after the tumor cell injection was observed. […]

mouse melanoma B16-F10 [2] = test: Blood-borne lung metastasis model, mouse melanoma tail vein injection (LPS); format: in vivo; conditions: for LPS-induced lung metastasis of tumor cells (nodules): 30 mg/kg-day oral from 4 days before LPS, LPS 1 mg/kg tail vein 4 to 5 hours before B16-F10 injection, 14 days after tumor cell injection, C57BL6 mice
Method: Lung Metastasis Suppressing Effect of Medicament in Blood-Borne Metastasis Model Established by Injection of Mouse Melanoma to Mouse Tail Vein (LPS)
Eight-week-old male C57BL6 mice (purchased from Japan SLC, Inc.) were used. Lipopolysaccharide (LPS) in an amount of 1 mg/kg was injected to the tail vein of each mouse, and mouse melanoma B16-F10 was injected to the tail vein 4 to 5 hours later. At this time, mouse melanoma was injected into the tail vein on the different side from the tail vein to which LPS was injected. Mouse melanoma B16-F10 was purchased from ATCC, and cultured in DMEM (Life Technologies Corp.) containing 10% FCS under 5% CO2 at 37° C. The cells in a semiconfluent state were treated with EDTA-trypsin (a 0.01 to 0.125% solution) and then centrifuged. As an angiotensin type 2 receptor agonist, Compounds A to E were used. The cells were suspended in serum free DMEM so as to be 3×10^6 cells/mL for Compound A administration group, and 2×10^6 cells/mL for Compound B to E administration groups. The melanoma cell suspension ([…]) at a density of 3×10^5 cells for Compound A administration group or at a density of […] for Compound B to E administration groups was injected to the tail vein of the mice.
To the angiotensin type 2 receptor agonist group, a 0.5% carboxymethylcellulose aqueous solution (0.2 mg/mL) prepared so as to contain 30 mg/kg-day of the agent (each of Compounds A to E) was orally given from 4 days before the start of the LPS administration to the end of the experiment (14 days after the injection of melanoma cells) in a continuous manner. To the control group, LPS was not injected, and only a 0.5% carboxymethylcellulose aqueous solution not containing the agent (any of Compounds A to E) was orally given for the experiment.
as §1, with “LPS” for “CDDP”, “(any of Compounds A to E)” for “(Compound A)”, “performed. […]” for “performed.”

Structure (SMILES) | CDDP-induced exacerbation of the lung metastasis of tumor cells (nodules) (mouse melanoma B16-F10 [1]; 30 mg/kg oral from 4 days before CDDP, CDDP 2.5 mg/kg tail vein 2 days before B16-F10 injection, 14 days after tumor cell injection, C57BL6 mice) | lung metastasis of tumor cells without CDDP administration (mouse melanoma B16-F10 [1]; 30 mg/kg oral, no CDDP, 14 days after B16-F10 tail vein injection, C57BL6 mice) | LPS-induced lung metastasis of tumor cells (nodules) (mouse melanoma B16-F10 [2]) | lung metastasis of tumor cells without LPS administration (mouse melanoma B16-F10 [2]; 30 mg/kg-day oral, no LPS, 14 days after B16-F10 tail vein injection) | effect of cisplatin (CDDP) administration on lung metastasis of tumor cells (mouse melanoma B16-F10 [1]; CDDP 2.5 mg/kg tail vein 2 days before B16-F10 injection, 14 days after tumor cell injection)
CCN(CC)C(=O)[C@H](Cc1ccc(NC(=O)c2ccccc2)cc1)C(=O)NS(=O)(=O)c1ccc2ccccc2c1 [Compound A, (2S)-2-[4-(benzoylamino)benzyl]-N,N-diethyl-N′-(2-naphthylsulfonyl)malonamide] | significantly suppressed the CDDP-induced exacerbation of the lung metastasis | capable of suppressing the lung metastasis of tumor cells | significantly suppressed the lung metastasis of tumor cells | suppresses the lung metastasis of tumor cells | –
CCN(CC)C(=O)[C@H](Cc1ccc(NC(=O)c2ccc(Cl)cc2N)cc1)C(=O)NS(=O)(=O)c1ccc2ccccc2c1 [Compound E, (2S)-2-{4-[(2-amino-4-chlorobenzoyl)amino]benzyl}-N,N-diethyl-N′-(2-naphthylsulfonyl)malonamide] | – | – | significantly suppressed the lung metastasis of tumor cells | – | –
N.N.[Cl][Pt][Cl] [cisplatin (CDDP), cisplatin, reference compound] | – | – | – | – | augmented the lung metastasis of tumor cells
